Laboratory results taken from patent US7655799B2, “2{[2-(substituted amino)ethyl]sulfonyl}ethyl N,N,N',N'-tetrakis(2-chloroethyl)phosphorodiamidates” (Telik, Inc., priority 2006, dated 2010).
pIC50: −log10 of the molar value.

Assays:
[1] = tested on: DLD-1 (colorectal adenocarcinoma); test: Cytotoxicity/Growth Inhibition Assay (CellTiter-Glo), DLD-1; type: cell-based; conditions: Homo sapiens, DLD-1, 96 h; hydrochloride salts; 4 days culture
Procedure: (§1) The human cancer cell lines DLD-1 (colorectal adenocarcinoma), LNCaP (prostate carcinoma), and MIA PaCa-2 (pancreatic carcinoma) were obtained from the American Type Culture Collection, Manassas, Va., U.S.A., and MX-1 (breast carcinoma) from the National Cancer Institute, Bethesda, Md., U.S.A. The CellTiter-Glo assay kit was obtained from Promega Corporation, Madison, Wis., U.S.A. All products were used in accordance with manufacturer's directions. All assays were conducted in triplicate wells, with dimethyl sulfoxide (DMSO) solvent control. The extent of cell growth was expressed as a percentage of the signal from the solvent control wells.
(§2) Log-phase cells were trypsinized, collected by centrifugation, and resuspended in a small volume of fresh medium, and the density of viable cells was determined following Trypan Blue staining. Cells were diluted in fresh media (3×10^3 cells/mL for DLD-1, MIA PaCa-2, and MX-1, and 6×10^3 cells/mL for LNCaP), and added at 150 μL/well to 96-well plates, and incubated for several hours to allow attachment in the case of adherent cells. Compounds 1A to 5A, as their hydrochloride salts, dissolved in DMSO, was diluted 50-fold with fresh medium and the diluted solutions immediately added at 50 μL/well to the cell suspensions, giving final compound concentrations between 0.1 μM and 200 μM and a final DMSO concentration of 0.5%. The cells were cultured for approximately three doubling times (3 days for MIA PaCa-2 and MX-1, and 4 days for DLD-1 and LNCaP). The cells were then collected by centrifugation, and 100 μL of the culture supernatant was replaced by the CellTiter-Glo reagent. After incubation for 10 minutes at room temperature, and the plate was read with a luminometer. A number of compounds of formula A were tested in this assay and found to be active.

[2] = tested on: LNCaP (prostate carcinoma); test: Cytotoxicity/Growth Inhibition Assay (CellTiter-Glo), LNCaP; type: cell-based; conditions: Homo sapiens, 96 h, hydrochloride salts, 4 days culture
Procedure: as §1, §2

[3] = tested on: MIA PaCa-2 (pancreatic carcinoma); test: Cytotoxicity/Growth Inhibition Assay (CellTiter-Glo), MIA PaCa-2; type: cell-based; conditions: Homo sapiens, MIA PaCa-2, 72 h; hydrochloride salts; 3 days culture
Procedure: as §1, §2

MX-1 (breast carcinoma) = test: Cytotoxicity/Growth Inhibition Assay (CellTiter-Glo), MX-1; type: cell-based; conditions: Homo sapiens, 72 h; hydrochloride salts; 3 days culture
Procedure: as §1, §2

MX-1 tumor [4] = test: MX-1 Xenograft Assay, Intraperitoneal Administration; type: in vivo, athymic nu/nu mice; conditions: hydrochloride salts in aqueous 5% dextrose
Procedure: (§3) Female athymic nu/nu mice (Harlan, Indianapolis, Ind., U.S.A. or similar vendor), 6-8 weeks old (approximately 20 g), were implanted in the mammary fat pad of the right fore flank with 20-30 mg pieces of MX-1 tumor harvested from similar nu/nu mice that had previously been implanted with the MX-1 tumor. […] Groups of mice were treated with compounds 2A and 3A at 50 mg/Kg and compounds 1A, 2A, 3A, and 5A at 100 mg/Kg, in all cases as the hydrochloride salts dissolved in aqueous 5% dextrose, by intraperitoneal injection once/day for 5 consecutive days, with vehicle control. Tumor mass, estimated from volume, was measured twice weekly; and tumor growth inhibition was measured when the average tumor mass in the control group first exceeded 2000 mg. All compounds were active in this assay, with tumor growth inhibition compared to vehicle of 70% and 23% for compounds 2A and 3A, respectively, at 50 mg/Kg, and 100%, 100%, 100%, and 91% for compounds 1A, 2A, 3A, and 5A, respectively, at 100 mg/Kg.

[5] = Solubility in water of salts; conditions: for solubility: water, solubility in water
MX-1 tumor [6] = test: MX-1 Xenograft Assay, Oral Administration; type: in vivo, athymic nu/nu mice; conditions: hydrochloride salt in water
Procedure: as §3
A study similar to that described in In vivo Example 1 was performed using oral administration of compounds 2A and 3A. Groups of mice were treated with compound 2A at 100, 150, 200, or 300 mg/Kg, or compound 3A at 150 mg/Kg, in each case as the hydrochloride salts dissolved in water, by gavage once/day for 5 consecutive days, with vehicle control. Both compounds were active in this assay and compound 2A caused dose-dependent tumor inhibition.

MX-1 tumor [7] = test: MX-1 Xenograft Assay, Intravenous Administration; type: in vivo, athymic nu/nu mice; conditions: hydrochloride salt in aqueous 5% dextrose
Procedure: as §3
A study similar to that described in In vivo Example 1 was performed using intravenous administration of compound 2A. A group of mice was treated with the compound, as the hydrochloride salt dissolved in aqueous 5% dextrose, at 40 and 80 mg/Kg by tail vein injection once/day for 5 consecutive days, with vehicle control.

MIA PaCa-2 tumor = test: MiaPaCa-2 Xenograft Assay, Intraperitoneal Administration; type: in vivo, athymic nu/nu mice; conditions: 100 mg/Kg intraperitoneal once/day for 7 days; for tumor growth inhibition compared to vehicle: hydrochloride salts in aqueous 5% dextrose
Procedure: Male athymic nu/nu mice, 6-8 weeks old (approximately 20 g), were implanted subcutaneously in the right fore flank with 20-30 mg pieces of MIA PaCa-2 tumor harvested from similar nu/nu mice that had previously been implanted with the MIA PaCa-2 tumor. […] A group of mice was treated with compounds 2A, 3A, and 5A, in all cases as the hydrochloride salts dissolved in aqueous 5% dextrose, at 100 mg/Kg by intraperitoneal injection once/day for 7 consecutive days, with vehicle control.

[8] = tested on: human cancer cell lines DLD-1, LNCaP, MIA PaCa-2, MX-1; test: Cytotoxicity/Growth Inhibition Assay, all cell lines, comparison with canfosfamide; type: cell-based; conditions: all assays (DLD-1, LNCaP, MIA PaCa-2, MX-1)
Procedure: as §1
Log-phase cells were trypsinized, collected by centrifugation, and resuspended in a small volume of fresh medium, and the density of viable cells was determined following Trypan Blue staining. Cells were diluted in fresh media (3×10^3 cells/mL for DLD-1, MIA PaCa-2, and MX-1, and 6×10^3 cells/mL for LNCaP), and added at 150 μL/well to 96-well plates, and incubated for several hours to allow attachment in the case of adherent cells. […] After incubation for 10 minutes at room temperature, and the plate was read with a luminometer. […]

[9] = 100 mg/Kg intraperitoneal once/day for 5 days
[10] = 50 mg/Kg intraperitoneal once/day for 5 days

SMILES | pIC50 [1] | pIC50 [2] | pIC50 [3] | pIC50 (MX-1 (breast carcinoma)) | tumor growth inhibition compared to vehicle (MX-1 tumor [4]; [9]) [%] | solubility in water (in words) ([5]; citrate salt) | solubility in water (in words) ([5]; hydrochloride salt) | tumor growth inhibition compared to vehicle (MX-1 tumor [4]; [10]) [%] | inhibition of tumor growth compared to vehicle (MX-1 tumor [6]; 100 mg/Kg by gavage once/day for 5 days) [%] | inhibition of tumor growth compared to vehicle (MX-1 tumor [6]; 300 mg/Kg by gavage once/day for 5 days) [%] | inhibition of tumor growth compared to vehicle (MX-1 tumor [7]; 40 mg/Kg tail vein injection once/day for 5 days) [%] | inhibition of tumor growth compared to vehicle (MX-1 tumor [7]; 80 mg/Kg tail vein injection once/day for 5 days) [%] | body weight effect (MIA PaCa-2 tumor) | tumor growth inhibition compared to vehicle (MIA PaCa-2 tumor) [%] | potency relative to canfosfamide [8] | solubility in water (in words) ([5]; tartrate salt) | solubility ([5]; citrate salt) [mg/mL] | solubility ([5]; hydrochloride salt) [mg/mL] | inhibition of tumor growth compared to vehicle (MX-1 tumor [6]; 150 mg/Kg by gavage once/day for 5 days) [%]
CN(C)CCS(=O)(=O)CCOP(=O)(N(CCCl)CCCl)N(CCCl)CCCl [Compound 1A, 2-{[2-(dimethylamino)ethyl]sulfonyl}ethyl N,N,N′,N′-tetrakis(2-chloroethyl)phosphorodiamidate] | 4.96 | 3.89 | 4.41 | 4.37 | 100 | somewhat more soluble than the citrate salt of compound 2A | highly soluble in water |  |  |  |  |  |  |  |  |  |  |  | 
CCN(CC)CCS(=O)(=O)CCOP(=O)(N(CCCl)CCCl)N(CCCl)CCCl [Compound 2A, 2-{[2-(diethylamino)ethyl]sulfonyl}ethyl N,N,N′,N′-tetrakis(2-chloroethyl)phosphorodiamidate] | 5.10 | 4.12 | 4.80 | 4.80 | 100 |  |  | 70 | 92 | 100 | 53 | 99 | some body weight loss | 89 | more potent | slightly more soluble than the citrate salt | ~19 | ≥ 50 | 
CC(C)N(CCS(=O)(=O)CCOP(=O)(N(CCCl)CCCl)N(CCCl)CCCl)C(C)C [Compound 3A, 2-{[2-(diisopropylamino)ethyl]sulfonyl}ethyl N,N,N′,N′-tetrakis(2-chloroethyl)phosphorodiamidate] | 5.30 | 4.80 | 5.17 | 5.30 | 100 |  |  | 23 |  |  |  |  | some body weight loss | 89 | more potent |  |  |  | 98
O=P(OCCS(=O)(=O)CCN1CCCC1)(N(CCCl)CCCl)N(CCCl)CCCl [Compound 4A, 2-{[2-(pyrrolidin-1-yl)ethyl]sulfonyl}ethyl N,N,N′,N′-tetrakis(2-chloroethyl)phosphorodiamidate] | 5.07 | 4.00 | 4.54 | 4.59 |  |  |  |  |  |  |  |  |  |  |  |  |  |  | 
O=P(OCCS(=O)(=O)CCN1CCCCC1)(N(CCCl)CCCl)N(CCCl)CCCl [Compound 5A, 2-{[2-(piperidin-1-yl)ethyl]sulfonyl}ethyl N,N,N′,N′-tetrakis(2-chloroethyl)phosphorodiamidate] | 4.89 | 3.85 | 4.44 | 4.39 | 91 |  |  |  |  |  |  |  | some body weight loss | 62 |  |  |  |  | 
